Some results are limits rather than exact numbers.

Common to all, as to type: biochemical
For assay [1], the target named is T1, SGK3 (Homo sapiens, UniProt Q96BR1).
T1 sequence (Q96BR1 1-496): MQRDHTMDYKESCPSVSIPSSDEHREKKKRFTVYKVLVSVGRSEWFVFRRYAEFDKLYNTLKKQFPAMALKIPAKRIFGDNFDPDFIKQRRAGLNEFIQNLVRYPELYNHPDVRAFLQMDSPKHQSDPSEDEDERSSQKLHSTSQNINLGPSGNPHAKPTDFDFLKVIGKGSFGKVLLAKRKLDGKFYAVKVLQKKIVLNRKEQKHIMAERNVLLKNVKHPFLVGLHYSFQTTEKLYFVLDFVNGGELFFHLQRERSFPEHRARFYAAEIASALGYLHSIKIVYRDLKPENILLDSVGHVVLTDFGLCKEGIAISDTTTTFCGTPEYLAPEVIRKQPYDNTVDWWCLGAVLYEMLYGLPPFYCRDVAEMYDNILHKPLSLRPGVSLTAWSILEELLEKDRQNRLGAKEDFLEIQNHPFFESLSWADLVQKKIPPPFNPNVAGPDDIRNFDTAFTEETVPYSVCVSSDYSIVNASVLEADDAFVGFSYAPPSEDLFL
Briefly: SGK3 enzyme inhibition. As to conditions: Target SGK3.

Assay [2] addresses GSK3-beta (Homo sapiens, UniProt P49841). Briefly: GSK3-beta enzyme inhibition. Particulars: Target GSK3-beta.
The target of assay [3] is T2, SGK2 (Homo sapiens, UniProt Q9HBY8).
T2 sequence (Q9HBY8 1-367): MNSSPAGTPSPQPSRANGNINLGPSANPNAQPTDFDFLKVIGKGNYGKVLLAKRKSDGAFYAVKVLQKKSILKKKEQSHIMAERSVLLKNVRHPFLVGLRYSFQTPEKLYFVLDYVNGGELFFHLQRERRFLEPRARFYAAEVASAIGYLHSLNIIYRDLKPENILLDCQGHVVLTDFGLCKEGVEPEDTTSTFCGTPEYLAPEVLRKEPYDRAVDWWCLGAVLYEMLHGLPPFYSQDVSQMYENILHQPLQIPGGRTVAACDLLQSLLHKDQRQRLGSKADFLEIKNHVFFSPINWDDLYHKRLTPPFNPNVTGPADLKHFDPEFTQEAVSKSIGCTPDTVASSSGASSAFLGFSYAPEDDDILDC
Briefly: SGK2 enzyme inhibition. As to conditions: Target SGK2.

The target of assay [4] is T3, SGK1 (Homo sapiens, UniProt O00141).
T3 sequence (O00141 1-431): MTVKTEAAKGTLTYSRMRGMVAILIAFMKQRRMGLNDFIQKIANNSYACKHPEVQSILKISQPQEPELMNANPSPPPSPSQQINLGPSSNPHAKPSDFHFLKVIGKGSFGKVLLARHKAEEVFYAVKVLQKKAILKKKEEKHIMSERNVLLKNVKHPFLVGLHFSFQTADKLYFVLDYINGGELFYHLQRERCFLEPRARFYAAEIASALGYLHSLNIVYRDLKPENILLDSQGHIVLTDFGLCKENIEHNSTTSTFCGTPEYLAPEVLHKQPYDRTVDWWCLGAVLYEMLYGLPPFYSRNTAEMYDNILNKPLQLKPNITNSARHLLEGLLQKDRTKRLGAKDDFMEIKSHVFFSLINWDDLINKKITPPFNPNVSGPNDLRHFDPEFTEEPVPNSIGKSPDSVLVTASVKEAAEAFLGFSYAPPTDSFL
Put plainly: SGK1 enzyme inhibition (filter binding method). Particulars: Target SGK1. The text has this:
Other assays are known from the literature and could readily be performed by the person skilled in the art (see, for example, Dhanabal et al., Cancer Res. 59:189-197; Xin at al., J. Biol. Chem. 274:9116-9121; Sheu et al., Anticancer Res. 18:4435-4441; Ausprunk et al., Dev. Biol. 38:237-248; Gimbrone et al., J. Natl. Cancer Inst. 52:413-427; Nicosia at al., In Vitro 18:538- 549). The inhibition of SGK1 protein kinase can be determined in the filter binding method.

Sequence of GSK3-beta (P49841 whole entry): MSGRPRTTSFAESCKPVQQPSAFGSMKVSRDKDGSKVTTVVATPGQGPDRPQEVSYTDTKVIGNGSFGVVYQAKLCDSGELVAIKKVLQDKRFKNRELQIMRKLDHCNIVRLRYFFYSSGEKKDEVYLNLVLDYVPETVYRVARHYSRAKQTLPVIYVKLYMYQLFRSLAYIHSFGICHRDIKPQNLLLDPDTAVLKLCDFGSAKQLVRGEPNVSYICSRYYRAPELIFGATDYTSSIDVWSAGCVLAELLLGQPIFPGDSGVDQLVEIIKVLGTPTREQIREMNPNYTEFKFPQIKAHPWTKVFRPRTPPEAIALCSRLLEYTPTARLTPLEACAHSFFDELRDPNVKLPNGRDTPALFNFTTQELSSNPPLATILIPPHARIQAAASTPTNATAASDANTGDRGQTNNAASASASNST

The term IC50 denotes the point on the concentration scale where inhibition reaches its midpoint. For `CCc1c(-c2nnc(NCc3cccc(F)c3)o2)ccc(O)c1C` [Compound A1, 3-ethyl-4-[5-(3-fluorobenzylamino)-1,3,4-oxadiazol-2-yl]-2-methylphenol], the IC50 in assay [1], in assay [2], in assay [3] and in assay [4] was 0.001 to 0.1 µM throughout. As for `CCc1c(-c2nnc(NCc3cccc(OC)c3)o2)ccc(O)c1C` [Compound A2], the IC50 in assay [2] is 0.1 to 10 µM; in assay [4], 0.001 to 0.1 µM. For `CCc1c(-c2nnc(N[C@H](C)c3cccc(OC)c3)o2)ccc(O)c1C` [Compound A3], the IC50 in assay [2] and in assay [4] was 0.001 to 0.1 µM in each case. In assay [4], `CCc1c(-c2nnc(N)o2)ccc(O)c1C` [Compound A4, 4-(5-amino-1,3,4-oxadiazol-2-yl)-3-ethyl-2-methylphenol] had a half-maximal inhibitory concentration (IC50) of 0.1 to 10 µM. For the compound `Oc1ccc(-c2nnc(NCc3cccc(F)c3)o2)nc1` [Compound A5, 6-[5-(3-fluorobenzylamino)-1,3,4-oxadiazol-2-yl]pyridin-3-ol], the IC50 in assay [4] was greater than 10 µM. Regarding `Oc1ccc(-c2nnc(NCc3cccc(F)c3)o2)c(F)c1F` [Compound A6, 2,3-difluoro-4-[5-(3-fluorobenzylamino)-1,3,4-oxadiazol-2-yl]phenol], the IC50 in assay [4] was greater than 10 µM.

Source of the values: US8377975B2, “Oxadiazole derivatives for the treatment of diabetes” (Merck Patent Gesellschaft Mit Beschrankter Haftung, priority 2008, dated 2013).
